Patent US12583851B2, “Heteroaryl-substituted pyrazine derivatives as pesticides” (Elanco Animal Health GmbH, priority 2019, dated 2026)

What was measured:
Assay type in all cases: in vivo
[1] = tested on: larvae of the banded cucumber beetle (Diabrotica balteata); experiment: Diabrotica balteata spray test; conditions: 168 h, after 7 days, read-out: efficacy (seedling growth); for pest or weed control at 32 µg/disc, 100 g/ha: 100 g/ha (=32 μg/well); for pest or weed control at 6.4 µg/disc, 20 g/ha: 20 g/ha (=6.4 μg/well)
Method: Diabrotica balteata—Spray Test
Solvent: 78.0 parts by weight of acetone • • 1.5 parts by weight of dimethylformamide
(§1) Emulsifier: alkylarylpolyglycol ether
(§2) To produce a suitable preparation of active compound, 1 part by weight of active compound is mixed with the stated amount of solvent, and the concentrate is diluted with water, containing an emulsifier concentration of 1000 ppm, to the desired concentration. Further test concentrations are prepared by dilution with emulsifier containing water.
Soaked wheat seeds (Triticum aestivum) are placed in a multiple well plate filled with agar and some water and are incubated for 1 day to germinate (5 seeds per well). The germinated wheat seeds are sprayed with a test solution containing the desired concentration of the active ingredient. Afterwards each unit is infected with 10-20 larvae of the banded cucumber beetle (Diabrotica balteata).
After 7 days efficacy in % is determined. 100% means all the seedlings have grown up like in the untreated, uninfected control; 0% means none of the seedlings have grown.

[2] = tested on: fall armyworm larvae (Spodoptera frugiperda); experiment: Spodoptera frugiperda spray test; conditions: 168 h, maize leaf sections, after 7 days
Method: Spodoptera fruaiperda—Spray Test
Solvent: 78.0 parts by weight acetone • 1.5 parts by weight dimethylformamide
as §1
as §2, with “solvents” for “solvent,”, “and” for “and the concentrate”
Maize (Zea mays) leaf sections are sprayed with a preparation of the active ingredient of the desired concentration. Once dry, the leaf sections are infested with fall armyworm larvae (Spodoptera frugiperda).
After 7 days mortality in % is determined. 100% means all caterpillars have been killed and 0% means none of the caterpillars have been killed.

[3] = tested on: Rhipicephalus (Boophilus) microplus larvae (strain Parkhurst, resistant against synthetic pyrethroids); experiment: Rhipicephalus (Boophilus) microplus in-vitro contact test, larval cattle tick; conditions: after 48 hours, read-out: efficacy (larvae dead or moribund); for pest or weed control at 1 µg/cm2, 100 g/ha: 1 μg/cm^2 (=100 g/ha); for pest or weed control at 5 µg/cm2, 500 g/ha: 5 μg/cm^2 (=500 g/ha)
Method: Rhipicephalus (Boophilus) microplus—In-Vitro Contact Tests Larval Cattle Tick (Strain Parkhurst, Resistant Against Synthetic Pyrethroids)
9 mg compound is solved in 1 mL acetone and diluted with acetone to the desired concentration. […] the test solution is filled in 25 mL glass test tubes and homogeneously distributed on the inner walls by rotation and tilting on a shaking device (2 h at 30 rpm). With a compound concentration of 900 ppm, an inner surface of 44.7 cm^2 and a homogeneous distribution, a dose of 5 μg/cm^2 is achieved.
After the solvent has evaporated, each test tube is filled with 20-50 cattle tick larvae (Rhipicephalus microplus), closed with a perforated lid and incubated in a horizontal position at 85% relative humidity and 27° C. in an incubator. After 48 hours efficacy is determined. The larvae are patted on the ground of the tubes and negative geotactic behaviour is recorded.
An efficacy of 100% means all larvae are dead or moribund; 0% means no larvae are dead or moribund.

## CCN(C)C(=O)c1ccc(-c2nccnc2C(C)NC(=O)c2cc(Cl)cc(OC(F)(F)F)c2)nc1 (racemic) [Example I-36, (rac)-6-(3-{1-[3-Chloro-5-(trifluoromethoxy)benzamido]ethyl}pyrazin-2-yl)-N-ethyl-N-methylpyridine-3-carboxamide]
[1]
  pest or weed control at 32 µg/disc, 100 g/ha: 100%
[2]
  mortality at 100 g/ha: 100%

## CC(NC(=O)c1cc(C(F)(F)F)cc(C(F)(F)F)c1)c1nccnc1-c1ccc(C(=O)N(C)CC#N)cn1 (racemic) [Example I-39, (rac)-6-(3-{1-[3,5-Bis(trifluoromethyl)benzamido]ethyl}pyrazin-2-yl)-N-(cyanomethyl)-N-methylpyridine-3-carboxamide]
[1]
  pest or weed control at 32 µg/disc, 100 g/ha: 100%
[2]
  mortality at 100 g/ha: 100%

## CC(NC(=O)c1cc(C#N)cc(C(F)(F)F)c1)c1nccnc1-c1ccc(C(F)(F)F)cn1 (racemic) [Example I-41, (rac)-3-Cyano-5-(trifluoromethyl)-N-[1-{3-[5-(trifluoromethyl)pyridin-2-yl]pyrazin-2-yl}ethyl]benzamide]
[1]
  pest or weed control at 6.4 µg/disc, 20 g/ha: 100%
[2]
  mortality at 100 g/ha: 83%

## CC(NC(=O)c1cc(C(F)(F)F)cc(C(F)(F)F)c1)c1nccnc1-c1ncc(C(=O)N2CCOCC2)s1 (racemic) [Example I-58, (rac)-N-[1-{3-[5-(Morpholine-4-carbonyl)-1,3-thiazol-2-yl]pyrazin-2-yl}ethyl]-3,5-bis(trifluoromethyl)benzamide]
[3]
  pest or weed control at 1 µg/cm2, 100 g/ha: 100%
  pest or weed control at 5 µg/cm2, 500 g/ha: 90%
[2]
  mortality at 100 g/ha: 100%

## CC(NC(=O)c1cc(C(F)(F)F)cc(C(F)(F)F)c1)c1nccnc1-c1ncc(C(=O)N(C)CC#N)s1 (racemic) [Example I-67, (rac)-2-(3-{1-[3,5-Bis(trifluoromethyl)benzamido]ethyl}pyrazin-2-yl)-N-(cyanomethyl)-N-methyl-1,3-thiazole-5-carboxamide]
[1]
  pest or weed control at 32 µg/disc, 100 g/ha: 100%
[2]
  mortality at 100 g/ha: 100%

## CC(NC(=O)c1cc(Cl)cc(S(C)(=O)=O)c1)c1nccnc1-c1ncc(C(=O)N(C)CC#N)s1 (racemic) [Example I-77, (rac)-2-(3-{1-[3-Chloro-5-(methanesulfonyl)benzamido]ethyl}pyrazin-2-yl)-N-(cyanomethyl)-N-methyl-1,3-thiazole-5-carboxamide]
[1]
  pest or weed control at 32 µg/disc, 100 g/ha: 100%
[2]
  mortality at 100 g/ha: 100%

## CC(NC(=O)c1cc(Br)cc(C#N)c1)c1nccnc1-n1cc(Cl)cn1 (racemic) [Example I-98, (rac)-3-Bromo-N-{1-[3-(4-chloro-1H-pyrazol-1-yl)pyrazin-2-yl]ethyl}-5-cyanobenzamide]
[1]
  pest or weed control at 6.4 µg/disc, 20 g/ha: 100%
  pest or weed control at 32 µg/disc, 100 g/ha: 100%
[2]
  mortality at 100 g/ha: 100%

## CC(NC(=O)c1cc(Cl)cc(C(F)(F)F)c1)c1nccnc1-n1cc(C#N)cn1 (racemic) [Example I-105, (rac)-3-Chloro-N-{1-[3-(4-cyano-1H-pyrazol-1-yl)pyrazin-2-yl]ethyl}-5-(trifluoromethyl)benzamide]
[1]
  pest or weed control at 32 µg/disc, 100 g/ha: 100%
[2]
  mortality at 100 g/ha: 100%

## CC(NC(=O)c1cc(Br)cc(Br)c1)c1nccnc1-n1cc(C#N)cn1 (racemic) [Example I-106, (rac)-3,5-Dibromo-N-{1-[3-(4-cyano-1H-pyrazol-1-yl)pyrazin-2-yl]ethyl}benzamide]
[1]
  pest or weed control at 6.4 µg/disc, 20 g/ha: 100%
  pest or weed control at 32 µg/disc, 100 g/ha: 100%
[2]
  mortality at 100 g/ha: 100%

## CCS(=O)(=O)c1cc(Cl)cc(C(=O)NC(C)c2nccnc2-n2cc(C#N)cn2)c1 (racemic) [Example I-122, (rac)-3-Chloro-N-{1-[3-(4-cyano-1-pyrazol-1-yl)pyrazin-2-yl]ethyl}-5-(ethanesulfonyl)benzamide]
[3]
  pest or weed control at 1 µg/cm2, 100 g/ha: 90%
[2]
  mortality at 100 g/ha: 100%

## Cc1cnc(C(C)NC(=O)c2cc(C(F)(F)F)cc(C(F)(F)F)c2)c(-c2ncc(C(=O)N(C)CC3CC3)s2)n1 (racemic) [Example I-125, (rac)-2-(3-{1-[3,5-Bis(trifluoromethyl)benzamido]ethyl}-6-methylpyrazin-2-yl)-N-(cyclopropylmethyl)-N-methyl-1,3-thiazole-5-carboxamide]
[3]
  pest or weed control at 1 µg/cm2, 100 g/ha: 100%
  pest or weed control at 5 µg/cm2, 500 g/ha: 100%
[2]
  mortality at 100 g/ha: 100%

## CC(NC(=O)c1cc(Cl)cc(S(=O)(=O)c2ccc(F)cc2)c1)c1nccnc1-n1cc(C#N)cn1 (racemic) [Example I-128, (rac)-3-Chloro-N-{1-[3-(4-cyano-1H-pyrazol-1-yl)pyrazin-2-yl]ethyl}-5-(4-fluorobenzene-1-sulfonyl)benzamide]
[3]
  pest or weed control at 1 µg/cm2, 100 g/ha: 90%
  pest or weed control at 5 µg/cm2, 500 g/ha: 80%
[2]
  mortality at 100 g/ha: 100%

## CC(NC(=O)c1cc(C(F)(F)F)cc(C(F)(F)F)c1)c1nccnc1-n1cc(C(=O)N(C)C(C)C)cn1 (racemic) [Example I-136, (rac)-1-(3-{1-[3,5-Bis(trifluoromethyl)benzamido]ethyl}pyrazin-2-yl)-N-methyl-N-(propan-2-yl)-1H-pyrazole-4-carboxamide]
[3]
  pest or weed control at 1 µg/cm2, 100 g/ha: 100%
  pest or weed control at 5 µg/cm2, 500 g/ha: 100%
[2]
  mortality at 100 g/ha: 100%

## CC(NC(=O)c1cc(Br)cc(OC(F)(F)F)c1)c1nccnc1-n1cc(C(=O)N(C)C(C)C)cn1 (racemic) [Example I-137, (rac)-1-(3-{1-[3-Bromo-5-(trifluoromethoxy)benzamido]ethyl}pyrazin-2-yl)-N-methyl-N-(propan-2-yl)-1H-pyrazole-4-carboxamide]
[3]
  pest or weed control at 1 µg/cm2, 100 g/ha: 100%
  pest or weed control at 5 µg/cm2, 500 g/ha: 100%
[2]
  mortality at 100 g/ha: 100%

## CC(NC(=O)c1cc(OC(F)F)cc(C2CC2)c1)c1nccnc1-c1ncc(C(=O)N(C)CC#N)s1 (racemic) [Example I-142, (rac)-N-(Cyanomethyl)-2-(3-{1-[3-cyclopropyl-5-(difluoromethoxy)benzamido]ethyl}pyrazin-2-yl)-N-methyl-1,3-thiazole-5-carboxamide]
[1]
  pest or weed control at 32 µg/disc, 100 g/ha: 100%
[2]
  mortality at 100 g/ha: 100%

## CCN(C)C(=O)c1cnc(-c2ncc(C)nc2C(C)NC(=O)c2cc(C(F)(F)F)cc(C(F)(F)F)c2)s1 (racemic) [Example I-148, (rac)-2-(3-{1-[3,5-Bis(trifluoromethyl)benzamido]ethyl}-5-methylpyrazin-2-yl)-N-ethyl-N-methyl-1,3-thiazole-5-carboxamide]
[2]
  mortality at 100 g/ha: 100%

## CCN(C)C(=O)c1cnc(-c2ncc(C)nc2C(C)NC(=O)c2cc(C(F)(F)F)nc(C(F)(F)F)c2)s1 (racemic) [Example I-151, (rac)-N-[1-(3-{5-[Ethyl(methyl)carbamoyl]-1,3-thiazol-2-yl)-6-methylpyrazin-2-yl)ethyl]-2,6-bis(trifluoromethyl)pyridine-4-carboxamide]
[2]
  mortality at 100 g/ha: 100%

## CCN(C)C(=O)c1cnc(-c2nc(C)cnc2C(C)NC(=O)c2cc(C(F)(F)F)cc(C(F)(F)F)c2)s1 (racemic) [Example I-152, (rac)-2-(3-{1-[3,5-Bis(trifluoromethyl)benzamido]ethyl}-6-methylpyrazin-2-yl)-N-ethyl-N-methyl-1,3-thiazole-5-carboxamide]
[1]
  pest or weed control at 6.4 µg/disc, 20 g/ha: 100%
  pest or weed control at 32 µg/disc, 100 g/ha: 100%
[2]
  mortality at 100 g/ha: 100%

## CCN(C)C(=O)c1cnc(-c2nc(C)cnc2C(C)NC(=O)c2cc(C(F)(F)F)cc(C(F)(F)F)c2)s1 (stereo in doubt) [Example I-157, (+)-2-(3-{(1S)-1-[3,5-bis(trifluoromethyl)benzamido]ethyl}-6-methylpyrazin-2-yl)-N-ethyl-N-methyl-1,3-thiazole-5-carboxamide]
[2]
  mortality at 100 g/ha: 100%

## CC(NC(=O)c1cc(Br)cc(OC(F)(F)F)c1)c1nccnc1-c1ccc(Cl)cn1 (centres unmarked) [Example I-22]
[1]
  pest or weed control at 6.4 µg/disc, 20 g/ha: 100%
  pest or weed control at 32 µg/disc, 100 g/ha: 100%
[2]
  mortality at 100 g/ha: 100%

## CCN(C)C(=O)c1cnc(-c2ncc(C)nc2[C@H](C)NC(=O)c2cc(C(F)(F)F)nc(C(F)(F)F)c2)s1 [Example I-159, (+)-N-[(1S)-1-(3-(5-[ethyl(methyl)carbamoyl]-1,3-thiazol-2-yl)-6-methylpyrazin-2-yl)ethyl]-2,6-bis(trifluoromethyl)pyridine-4-carboxamide]
[2]
  mortality at 100 g/ha: 100%
